Row | Structure (SMILES) | melting point
1 | O=C(O)COc1cccc(-c2ccc(Cl)c(C(=O)NCC34CC5CC(CC(C5)C3)C4)c2)c1 [Example 38, [[4′-Chloro-3′-[[(tricyclo[3.3.1.1^3,7]dec-1-ylmethyl)amino]carbonyl][1,1′-biphenyl]-3-yl]oxy]-acetic acid] | 99 to 101 °C
2 | O=C(O)COc1ccc(-c2ccc(Cl)c(C(=O)NCC34CC5CC(CC(C5)C3)C4)c2)cc1 [Example 40, [[4′-Chloro-3′-[[(tricyclo[3.3.1.1^3,7]dec-1-ylmethyl)amino]carbonyl][1,1′-biphenyl]-4-yl]oxy]-acetic acid] | 136 to 140 °C
3 | C[C@H](Oc1cccc(-c2ccc(Cl)c(C(=O)NCC34CC5CC(CC(C5)C3)C4)c2)c1)C(=O)O [Example 41, (2S)-2-[[4′-Chloro-3′-[[(tricyclo[3.3.1.1^3,7]dec-1-ylmethyl)amino]carbonyl][1,1′-biphenyl]-3-yl]oxy]-propanoic acid] | 115 to 120 °C
4 | C[C@H](Oc1ccc(-c2ccc(Cl)c(C(=O)NCC34CC5CC(CC(C5)C3)C4)c2)cc1)C(=O)O [Example 43, (2S)-2-[[4′-Chloro-3′-[[(tricyclo[3.3.1.1^3,7]dec-1-ylmethyl)amino]carbonyl][1,1′-biphenyl]-4-yl]oxy]-propanoic acid] | 145 to 150 °C
5 | O=C(O)COc1cccnc1-c1ccc(Cl)c(C(=O)NCC23CC4CC(CC(C4)C2)C3)c1 [Example 46, [[2-[4-Chloro-3-[[(tricyclo[3.3.1.1^3,7]dec-1-ylmethyl)amino]carbonyl]phenyl]-3-pyridinyl]oxy]-acetic acid] | 133 to 137 °C
6 | O=C(NCCC12CC3CC(CC(C3)C1)C2)c1cc(-c2ccccc2C(=O)O)ccc1Cl [Example 49, 4′-Chloro-3′-[[(2-tricyclo[3.3.1.1^3,7]dec-1-ylethyl)amino]carbonyl]-[1,1′-biphenyl]-2-carboxylic acid] | 114 to 117 °C
7 | CN(CCO)c1nc(-c2ccc(Cl)c(C(=O)NCC34CC5CC(CC(C5)C3)C4)c2)ccc1C(=O)O [Example 54, 6-[4-Chloro-3-[[(tricyclo[3.3.1.1^3,7]dec-1-ylmethyl)amino]carbonyl]phenyl]-2-[(2-hydroxyethyl)methylamino]-3-pyridinecarboxylic acid] | 121 to 124 °C
8 | O=C(NCC12CC3CC(CC(C3)C1)C2)c1cc(-c2cccnc2N2CCC(C(=O)O)CC2)ccc1Cl [Example 59, 1-[3-[4-Chloro-3-[[(tricyclo[3.3.1.1^3,7]dec-1-ylmethyl)amino]carbonyl]phenyl]-2-pyridinyl]-4-piperidinecarboxylic acid] | 110 to 115 °C
9 | O=C(NCC12CC3CC(CC(C3)C1)C2)c1cc(-c2cccnc2N2CCC[C@H]2C(=O)O)ccc1Cl [Example 60, 1-[3-[4-Chloro-3-[[(tricyclo[3.3.1.1^3,7]dec-1-ylmethyl)amino]carbonyl]phenyl]-2-pyridinyl]-L-proline] | 121 to 125 °C
10 | O=C(NCC12CC3CC(CC(C3)C1)C2)c1cc(-c2cccnc2N2CCCC(C(=O)O)C2)ccc1Cl (centres unmarked) [Example 61, 1-[3-[4-Chloro-3-[[(tricyclo[3.3.1.1^3,7]dec-1-ylmethyl)amino]carbonyl]phenyl]-2-pyridinyl]-3-piperidinecarboxylic acid] | 125 to 130 °C
11 | O=C(NCC12CC3CC(CC(C3)C1)C2)c1cc(-c2cccnc2N2CC(C(=O)O)C2)ccc1Cl [Example 62, 1-[3-[4-Chloro-3-[[(tricyclo[3.3.1.1^3,7]dec-1-ylmethyl)amino]carbonyl]phenyl]-2-pyridinyl]-3-azetidinecarboxylic acid] | 145 to 150 °C
12 | O=C(NCC12CC3CC(CC(C3)C1)C2)c1cc(-c2cccnc2N2CCC(O)(C(=O)O)CC2)ccc1Cl [Example 65, 1-[3-[4-Chloro-3-[[(tricyclo[3.3.1.1^3,7]dec-1-ylmethyl)amino]carbonyl]phenyl]-2-pyridinyl]-4-hydroxy-4-piperidinecarboxylic acid] | 145 to 150 °C
13 | O=C(NCC12CC3CC(CC(C3)C1)C2)c1cc(-c2cc(F)cnc2N2CCC(C(=O)O)CC2)ccc1Cl [Example 66, 1-[3-[4-Chloro-3-[[(tricyclo[3.3.1.1^3,7]dec-1-ylmethyl)amino]carbonyl]phenyl]-5-fluoro-2-pyridinyl]-4-piperidinecarboxylic acid] | 130 to 135 °C
14 | Cc1ccc(-c2ccccc2C(=O)O)cc1C(=O)NCC12CC3CC(CC(C3)C1)C2 [Example 67, 4′-Methyl-3′-[[(tricyclo[3.3.1.1^3,7]dec-1-ylmethyl)amino]carbonyl]-[1,1′-biphenyl]-2-carboxylic acid] | 85 to 92 °C
15 | Cc1ccc(-c2cccnc2N2CCC(C(=O)O)CC2)cc1C(=O)NCC12CC3CC(CC(C3)C1)C2 [Example 68, 1-[3-[4-Methyl-3-[[(tricyclo[3.3.1.1^3,7]dec-1-ylmethyl)amino]carbonyl]phenyl]-2-pyridinyl]-4-piperidinecarboxylic acid] | 60 °C
16 | Cc1ccc(-c2cccc(C(=O)O)n2)cc1C(=O)NCC12CC3CC(CC(C3)C1)C2 [Example 69, 6-[4-Methyl-3-[[(tricyclo[3.3.1.1^3,7]dec-1-ylmethyl)amino]carbonyl]phenyl]-2-pyridinecarboxylic acid] | 227 °C

More lines, now with the values ahead:

Row | melting point | Structure (SMILES)
17 | 200 to 202 °C | O=C(O)Cc1ccccc1-c1ccc(Cl)c(C(=O)NCC23CC4CC(CC(C4)C2)C3)c1 [Example 37, 4′-Chloro-3′-[[(tricyclo[3.3.1.1^3,7]dec-1-ylmethyl)amino]carbonyl]-[1,1′-biphenyl]-2-acetic acid]
18 | 133 to 137 °C | C[C@@H](Oc1ccccc1-c1ccc(Cl)c(C(=O)NCC23CC4CC(CC(C4)C2)C3)c1)C(=O)O [Example 39, (2R)-2-[[4′-Chloro-3′-[[(tricyclo[3.3.1.1^3,7]dec-1-ylmethyl)amino]carbonyl][1,1′-biphenyl]-2-yl]oxy]-propanoic acid]
19 | 207 to 210 °C | O=C(NCC12CC3CC(CC(C3)C1)C2)c1cc(-c2ccc(Cl)cc2C(=O)O)ccc1Cl [Example 42, 4,4′-Dichloro-3′-[[(tricyclo[3.3.1.1^3,7]dec-1-ylmethyl)amino]carbonyl]-[1,1′-biphenyl]-2-carboxylic acid]
20 | 154 to 159 °C | O=C(NCC12CC3CC(CC(C3)C1)C2)c1cc(-c2ccc(Cl)c(C(=O)O)n2)ccc1Cl [Example 44, 3-Chloro-6-[4-chloro-3-[[(tricyclo[3.3.1.1^3,7]dec-1-ylmethyl)amino]carbonyl]phenyl]-2-pyridinecarboxylic acid]
21 | 190 to 194 °C | O=C(O)CNc1cccnc1-c1ccc(Cl)c(C(=O)NCC23CC4CC(CC(C4)C2)C3)c1 [Example 47, N-[2-[4-Chloro-3-[[(tricyclo[3.3.1.1^3,7]dec-1-ylmethyl)amino]carbonyl]phenyl]-3-pyridinyl]-glycine]
22 | 121 to 125 °C | O=C(NCC12CC3CC(CC(C3)C1)C2)c1cc(-c2cc(F)c(F)cc2C(=O)O)ccc1Cl [Example 48, 4′-Chloro-4,5-difluoro-3′-[[(tricyclo[3.3.1.1^3,7]dec-1-ylmethyl)amino]carbonyl]-[1,1′-biphenyl]-2-carboxylic acid]
23 | 108 to 111 °C | O=C(NCCC12CC3CC(CC(C3)C1)C2)c1cc(-c2cccnc2C(=O)O)ccc1Cl [Example 50, 3-[4-Chloro-3-[[(2-tricyclo[3.3.1.1^3,7]dec-1-ylethyl)amino]carbonyl]phenyl]-2-pyridinecarboxylic acid]
24 | 126 to 128 °C | O=C(NCC12CC3CC(CC(C3)C1)C2)c1cc(-c2ccc(F)cc2C(=O)O)ccc1Cl [Example 51, 4′-Chloro-4-fluoro-3′-[[(tricyclo[3.3.1.1^3,7]dec-1-ylmethyl)amino]carbonyl]-[1,1′-biphenyl]-2-carboxylic acid]
25 | 134 to 138 °C | O=C(NCC12CC3CC(CC(C3)C1)C2)c1cc(-c2ccccc2C(=O)O)ncc1Cl [Example 52, 2-[5-Chloro-4-[[(tricyclo[3.3.1.1^3,7]dec-1-ylmethyl)amino]carbonyl]-2-pyridinyl]-benzoic acid]
26 | 177 to 180 °C | Cc1ccnc(-c2ccc(Cl)c(C(=O)NCC34CC5CC(CC(C5)C3)C4)c2)c1C(=O)O [Example 53, 2-[4-Chloro-3-[[(tricyclo[3.3.1.1^3,7]dec-1-ylmethyl)amino]carbonyl]phenyl]-4-methyl-3-pyridinecarboxylic acid]
27 | 181 to 183 °C | Cc1ccc(-c2cccnc2C(=O)O)cc1C(=O)NCC12CC3CC(CC(C3)C1)C2 [Example 55, 3-[4-Methyl-3-[[(tricyclo[3.3.1.1^3,7]dec-1-ylmethyl)amino]carbonyl]phenyl]-2-pyridinecarboxylic acid]
28 | 207 °C | Cc1nn(C)c(C(=O)O)c1-c1ccc(Cl)c(C(=O)NCC23CC4CC(CC(C4)C2)C3)c1 [Example 56, 4-[4-Chloro-3-[[(tricyclo[3.3.1.1^3,7]dec-1-ylmethyl)amino]carbonyl]phenyl]-1,3-dimethyl-1H-pyrazole-5-carboxylic acid]
29 | 125 to 130 °C | Cc1ccc(-c2ccc(Cl)c(C(=O)NCC34CC5CC(CC(C5)C3)C4)c2)c(C(=O)O)n1 [Example 63, 3-[4-Chloro-3-[[(tricyclo[3.3.1.1^3,7]dec-1-ylmethyl)amino]carbonyl]phenyl]-6-methyl-2-pyridinecarboxylic acid]
30 | 125 to 130 °C | Cc1cnc(C(=O)O)c(-c2ccc(Cl)c(C(=O)NCC34CC5CC(CC(C5)C3)C4)c2)c1 [Example 64, 3-[4-Chloro-3-[[(tricyclo[3.3.1.1^3,7]dec-1-ylmethyl)amino]carbonyl]phenyl]-5-methyl-2-pyridinecarboxylic acid]
31 | 104 to 107 °C | O=C(NCC12CC3CC(CC(C3)C1)C2)c1cc(-c2ccncc2C(=O)O)ccc1Cl [Example 70, 4-[4-Chloro-3-[[(tricyclo[3.3.1.1^3,7]dec-1-ylmethyl)amino]carbonyl]phenyl]-3-pyridinecarboxylic acid]
32 | 180 to 185 °C | Cc1ccc(-c2ccc(Cl)c(C(=O)NCC34CC5CC(CC(C5)C3)C4)c2)nc1C(=O)O [Example 71, 6-[4-Chloro-3-[[(tricyclo[3.3.1.1^3,7]dec-1-ylmethyl)amino]carbonyl]phenyl]-3-methyl-2-pyridinecarboxylic acid]
